The subject of test [1] is SK-MEL-188 melanoma cell line. As to the kind of experiment: Sulforhodamine B (SRB) cytotoxicity assay, SK-MEL-188. It counts as cell-based. To be noted: Homo sapiens, 48 h exposure, diastereomeric mixtures, value ± standard error, read-out: IC50 ± SEM SK-MEL-188 (converted). The procedure: (§1) Cytotoxicity of these newly synthesized compounds was examined in two human melanoma cell lines (SK-MEL-188 and WM-164) and in a fibroblast cell line. Activity on fibroblast cells was used as a control to determine the selectivity of these compounds against melanoma. Standard sulforhodamine B (SRB) assay was used. Cells were exposed to a wide range of concentrations for 48 h in round-bottom 96-well plates. Cells were fixed with 10% trichloroacetic acid and washed five times with water. After cells were air-dried overnight and stained with SRB solution, total proteins were measured at 560 nm with a plate reader. IC50 (i.e., concentration which inhibited cell growth by 50% of DMSO-treated controls) values were obtained by nonlinear regression analysis with GraphPad Prism (GraphPad Software, San Diego, Calif.).
(§2) The ability of thiazolidine derivatives to inhibit the growth of two melanoma cancer cell lines and fibroblast cells is summarized in Table 1. […] At this early stage, all compounds were used as a diastereomeric mixture if they contain chiral centers in order to select the most promising compounds for further development.
Background: The SRB assay estimates cell density from bound dye.

In test [2] the test system is WM-164 melanoma cell line. As to the kind of experiment: Sulforhodamine B (SRB) cytotoxicity assay, WM-164. It counts as cell-based. The following applies: Homo sapiens, WM164, 48 h exposure, diastereomeric mixtures, value ± standard error, read-out: IC50 ± SEM WM-164 (converted). The procedure:
as §1, §2

A further test has as its system fibroblast cell line. As to the kind of experiment: Sulforhodamine B (SRB) cytotoxicity assay, fibroblast control. To be noted: 48 h exposure, control for selectivity, value ± standard error, read-out: IC50 ± SEM Fibroblast (converted). It counts as cell-based. The procedure:
as §1, §2

Another test relates to melanoma cells. As to the kind of experiment: SRB cytotoxicity assay, statements not tied to one cell line. It counts as cell-based, human. The following applies: for IC50: Homo sapiens, summary over the cell lines, read-out: IC50 in the in vitro assay (cell line not given). The procedure:
as §1, §2

By IC50 is commonly meant the concentration that inhibits the measured activity by half.

For `CON(C)C(=O)[C@@H]1CSC(c2ccccc2)N1` (stereo partly drawn) [Compound 323, (4R)—N-methoxy-N-methyl-2-phenylthiazolidine-4-carboxamide], the IC50 (in test [1]; in test [2]; in the test with fibroblast cell line) was > 100 µM each time. For the same molecule, in the test on melanoma cells (melanoma cells and fibroblast cells), the potency/activity in words result is “completely abolished potency”.
In the case of `CCCCCCCCCCCCCCNC(=O)[C@@H]1CSC(c2ccccc2)=N1` [Compound 328, (R)-4,5-dihydro-2-phenyl-N-tetradecylthiazole-4-carboxamide], the IC50 in test [1] is 42.1 ± 5 µM; in test [2] it was > 50 µM; in the test with fibroblast cell line, > 50 µM; with melanoma cells, > 20 µM.
For the molecule `CCCCCCCCCCCCCCNC(=O)[C@@H]1CSC(c2ccc(OC)c(OC)c2)=N1` [Compound 329, (R)-4,5-dihydro-2-(3,4-dimethoxyphenyl)-N-tetradecylthiazole-4-carboxamide], the IC50 in test [1] is 19.1 µM; in test [2], 42.9 µM; in the test with fibroblast cell line, > 50 µM; with melanoma cells, > 20 µM.
Turning to `CCCCCCCCCCCCCCCCNC(=O)[C@@H]1CSC(c2ccccc2NC(C)=O)N1C` (stereo partly drawn) [Compound 330, (4R)-2-(2-acetamidophenyl)-N-hexadecyl-3-methylthiazolidine-4-carboxamide], the IC50 in test [1] was 29.1 ± 1 µM; in test [2] it was > 100 µM; in the test on fibroblast cell line, > 100 µM; in the test on melanoma cells, > 20 µM.
With `CNC(=O)c1cc(Oc2ccc(NC(=O)Nc3ccc(Cl)c(C(F)(F)F)c3)cc2)ccn1` [Sorafenib, reference compound], the IC50 was 4.3 ± 0.2 µM in test [1], 4.7 ± 0.3 µM in test [2] and > 100 µM in the test with fibroblast cell line. In addition, in the test on melanoma cells (fibroblast IC50 / melanoma IC50), the “selectivity: ratio of IC50 values for fibroblast cells over melanoma cells” value was > 25. The “potency against melanoma cells relative to compound 317 (times less potent)” value in the test on melanoma cells (versus compound 317) was “about 10 times”.

For the origin of these results see US20080255213A1, “THIAZOLIDINONE AMIDES, THIAZOLIDINE CARBOXYLIC ACID AMIDES, AND SERINE AMIDES, INCLUDING POLYAMINE CONJUGATES THEREOF, AS SELECTIVE ANTI-CANCER AGENTS” (University of Tennessee Research Foundation, priority 2007, published 2008).
